Test results from patent US20100056525A1, “5- AND 6- SUBSTITUTED BENZIMIDAZOLE THIOPHENE COMPOUNDS” (priority 2006, published 2010).

Key:
[1] = tested on: HCT-116 (human colon) cells; test: Cell-Titer Glo Cell Growth Inhibition Assay; assay type: cell-based; conditions: HCT-116 cells, 72 h incubation, CellTiter-Glo, read-out: HCT116 IC50
Experimental: A549-L (human lung), Colo 205 (human colon), HCT-116 (human colon), HT29 (human colon), MX-1 (human breast), SKOV3 (human ovary) and P388 (murine leukemia) cell lines were cultured in RPM11640 containing 10% fetal bovine serum at 37° C. in a 5% CO2 incubator. Cell lines were split into T75 flasks (Falcon #353136) two to three days prior to assay set up at density which yields approximately 70-80% confluency at time of harvest for assay. Cells were harvested using 0.25% trypsin with EDTA (Glibco/Invitrogen #25200-056), Cell counts were performed on cell suspensions using Trypan Blue exclusion staining, cells were then plated in 105 µL of culture media per well at the following densities in 96 well Costar #3916 black flat bottom plates: A549-L 500 cells/well, Colo205 500 cells/well, HCT-116 500 cells/well, HT29 500 cells/well, MX-1 500 cells/well, SKOV3 500 cells/well and P388 250 cells/well. All plates were placed at 5% CO2 37° C. overnight and then test compounds were added the following day. One plate of each cell type was treated with CellTiter-Glo (Promega #G7573) for a day 0 proliferation measurement and read as described below. The test compounds were prepared in clear U bottom polypropylene 96 well plates (Falcon #35-1190 with consecutive two fold dilutions. 9 uL of these dilutions was added into each well of the cell plates. The final concentration of DMSO in all wells was 0.15%. Cells were incubated at 37° C., 5% CO2 for 72 h. Following 72 h of incubation with compounds each plate was developed and read. CellTiter-Glo reagent was added to assay plates using a volume equivalent to the cell culture volume in the wells. Plates were shaken for approximately 2 min and incubated at rt for approximately 15 min and the chemiluminescent signal was read on the Victor V or Envison 2100 reader. […] Concentration of compound that inhibited 50% of cell growth (IC50) was analyzed by 4 or 6 parameter fit of data using XLfit, value of no cell addition was substracted from all samples for background.

PLK1 kinase domain = target: T1, PLK1 kinase domain (Homo sapiens, UniProt P53350); test: Assay for Inhibition of PLK1 (SPA, 33P-ATP); assay type: biochemical; conditions: 2 nM PLK1 kinase domain, 1 μM ATP, 22° C.; read-out: PLK1 pIC50 (converted)
T1 construct: made in house; host or cells: baculovirus infected T. ni cells
Experimental: A. Preparation of 6× N-Terminal His-Tagged PLK Kinase Domain
All procedures were performed at 4° C. Cells were lysed in 50 mM HEPES, 200 mM NaCl, 50 mM imidazole, 5% glycerol; pH 7.5. The homogenate was centrifuged at 14K rpm in a SLA-1500 rotor for 1 hr and the supernatant filtered through a 1.2 micron filter. The supernatant was loaded onto a Nickel chelating Sepharose (Amersham Pharmacia) column and washed with lysis buffer. Protein was eluted using 20%, 30% and 100% buffer B steps where buffer B was 50 mM HEPES, 200 mM NaCl, 300 mM imidazole, 5% glycerol; pH 7.5. Fractions containing PLK were determined by SDS-PAGE. Fractions containing PLK were diluted five-fold with 50 mM HEPES, 1 mM DTT, 5% glycerol; pH 7.5, then loaded on an SP Sepharose (Amersham Pharmacia) column. After washing the column with 50 mM HEPES, 1 mM DTT, 5% glycerol; pH 7.5, PLK was step eluted with 50 mM HEPES, 1 mM DTT, 500 mM NaCl; 5% glycerol; pH 7.5. PLK was concentrated using a 10 kDa molecular weight cutoff membrane and then loaded onto a Superdex 200 gel filtration (Amersham Pharmacia) column equilibrated in 25 mM HEPES, 1 mM DTT, 500 mM NaCl, 5% glycerol; pH 7.5. Fractions containing PLK were determined by SDS-PAGE. PLK was pooled, aliquoted and stored at −80° C. Samples were quality controlled using mass spectrometry, N-terminal sequencing and amino acid analysis.
B. Enzyme Activity +/− Inhibitors was Determined as Follows:
All measurements were obtained under conditions where signal production increased linearly with time and enzyme. Test compounds were added to white 384-well assay plates (0.1 μL for 10 μL and some 20 μL assays, 1 μL for some 20 μL assays) at variable known concentrations in 100% DMSO. DMSO (1-5% final, as appropriate) and EDTA (65 mM in reaction) were used as controls.
Reaction Mix (10 or 20 μL) was quickly added to each well immediately following addition of enzyme via automated liquid handlers and incubated 1-1.5 h at 22° C. The 20 μL enzymatic reactions were stopped with 50 μL of stop mix (50 mM EDTA, 4.0 mg/mL Streptavidin SPA beads in Standard Dulbecco's PBS (without Mg^2+ and Ca^2+), 50 μM ATP) per well. The 10 μL reactions were stopped with 10 μL of stop mix (50 mM EDTA, 3.0 mg/mL Streptavidin-coupled SPA Imaging Beads (“LeadSeeker”) in Standard Dulbecco's PBS (without Mg^2+ and Ca^2+), 50 μM ATP) per well. Plates were sealed with clear plastic seals, spun at 500×g for 1 min or settled overnight, and counted in Packard TopCount for 30 seconds/well (regular SPA) or imaged using a Viewlux imager (LeadSeeker SPA). Signal above background (EDTA controls) was converted to percent inhibition relative to that obtained in control (DMSO-only) wells.

T1 sequence (P53350 21-346): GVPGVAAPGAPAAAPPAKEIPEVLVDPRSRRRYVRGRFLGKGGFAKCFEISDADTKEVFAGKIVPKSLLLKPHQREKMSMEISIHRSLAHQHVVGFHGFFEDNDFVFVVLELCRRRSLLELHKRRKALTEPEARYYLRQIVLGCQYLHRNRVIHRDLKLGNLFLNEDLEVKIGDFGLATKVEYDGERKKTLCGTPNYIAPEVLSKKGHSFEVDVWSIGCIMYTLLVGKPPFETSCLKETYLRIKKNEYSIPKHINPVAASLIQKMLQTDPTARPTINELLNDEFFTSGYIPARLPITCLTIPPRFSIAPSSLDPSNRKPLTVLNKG

- IC50 [1]: < 500 nM
- IC50 (PLK1 kinase domain): < 100 nM
SMILES: CNCCNc1cc(-c2ccc3c(c2)ncn3-c2cc(O[C@H](C)c3ccccc3C(F)(F)F)c(C(N)=O)s2)ccn1 [Example 2, 5-[5-(2-{[2-(Methylamino)ethyl]amino}-4-pyridinyl)-1H-benzimidazol-1-yl]-3-({(1R)-1-[2-(trifluoromethyl)phenyl]ethyl}oxy)-2-thiophenecarboxamide]
